Laboratory results published in US10597388B2, “Pyridazinone herbicides” (FMC CORPORATION, priority 2014, dated 2020).

Columns and labels:
Experiment in all cases: Test D controlled growth environment herbicide test, pre- and postemergence
Assay type in all cases: in vivo
[1] = tested on: barley, spring (spring barley, Hordeum vulgare)
In short: (§1)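 Pre-emergence: seeds sown in silt loam soil were sprayed with compound in a non-phytotoxic solvent mix containing surfactant. Post-emergence: plants at 2 to 18 cm (1- to 4-leaf stage) in peat moss/vermiculite medium got the same formulation. Visual 0–100 rating versus controls after 14 to 21 d.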

[2] = tested on: barley, winter (winter barley, Hordeum vulgare)
In short: as §1

[3] = tested on: bluegrass (annual bluegrass, Poa annua)
In short: as §1

[4] = tested on: buckwheat, wild (wild buckwheat, Polygonum convolvulus)
In short: as §1

[5] = tested on: chamomile (scentless chamomile, Matricaria inodora)
In short: as §1

[6] = tested on: field poppy (Papaver rhoeas)
In short: as §1

[7] = tested on: galium (catchweed bedstraw, Galium aparine)
In short: as §1

[8] = tested on: mustard, wild (wild mustard, Sinapis arvensis)
In short: as §1

[9] = tested on: oat, wild (wild oat, Avena fatua)
In short: as §1

[10] = tested on: oilseed rape (Brassica napus)
In short: as §1

[11] = tested on: pigweed (Amaranthus retroflexus)
In short: as §1

[12] = tested on: radish, wild (wild radish, Raphanus raphanistrum)
In short: as §1

[13] = tested on: speedwell (bird's-eye speedwell, Veronica persica)
In short: as §1

[14] = Postemergence, 31 g ai/ha, scale 0 to 100 (0 no effect, 100 complete control)
[15] = Postemergence, 125 g ai/ha, visual rating on scale 0 (no effect) to 100 (complete control), 14 to 21 d
[16] = Postemergence, 250 g ai/ha, scale 0 to 100 (0 no effect, 100 complete control)
[17] = Preemergence, 62 g ai/ha, scale 0 to 100 (0 no effect, 100 complete control)
[18] = Preemergence, 125 g ai/ha, scale 0 to 100 (0 no effect, 100 complete control)
[19] = Preemergence, 250 g ai/ha, scale 0 to 100 (0 no effect, 100 complete control)
[20] = postemergence, 62 g ai/ha, scale 0 to 100, 0 no effect, 100 complete control

Q: For `Cc1ccc2sc(C)c(-c3c(O)c(C)nn(C)c3=O)c2c1` [Compound 1, 4-(2,5-dimethylbenzo[b]thien-3-yl)-5-hydroxy-2,6-dimethyl-3(2H)-pyridazinone], which “Plant response rating, Barley, Spring” value [1, 14] is on record?
A: 0

Q: And the “Plant response rating, Barley, Spring” value [1, 15]?
A: 5

Q: What about the “Plant response rating, Barley, Spring” value [1, 16] of the same molecule?
A: 10

Q: And the “Plant response rating (scale of 0 to 100), Barley, Spring” value ([1]; Preemergence, 31 g ai/ha)?
A: 0

Q: What about the “Plant response rating, Barley, Spring” value [1, 17] of the same molecule?
A: 0

Q: What about the “Plant response rating, Barley, Spring” value [1, 18] of the same molecule?
A: 10

Q: What about the “Barley, Spring plant response rating” value [1, 19] of the same molecule?
A: 15

Q: And the “Plant response rating, Barley, Spring” value [1, 20]?
A: 5

Q: And the “Plant response rating, Barley, Winter” value [2, 14]?
A: 5

Q: And the “Plant response rating, Barley, Winter” value [2, 15]?
A: 5

Q: And the “Plant response rating, Barley, Winter” value [2, 16]?
A: 10

Q: And the “Plant response rating (scale of 0 to 100), Barley, Winter” value ([2]; Preemergence, 31 g ai/ha)?
A: 0

Q: And the “Plant response rating, Barley, Winter” value [2, 17]?
A: 0

Q: What about the “Plant response rating, Barley, Winter” value [2, 18] of the same molecule?
A: 0

Q: And the “Barley, Winter plant response rating” value [2, 19]?
A: 0

Q: And the “Plant response rating, Barley, Winter” value [2, 20]?
A: 5

Q: And the “Bluegrass plant response rating” value [3, 14]?
A: 0

Q: And the “Plant response rating, Bluegrass” value [3, 15]?
A: 5

Q: And the “Plant response rating, Bluegrass” value [3, 16]?
A: 5

Q: And the “Plant response rating (scale of 0 to 100), Bluegrass” value ([3]; Preemergence, 31 g ai/ha)?
A: 5

Q: What about the “Plant response rating, Bluegrass” value [3, 17] of the same molecule?
A: 15

Q: And the “Plant response rating, Bluegrass” value [3, 18]?
A: 35

Q: What about the “Bluegrass plant response rating” value [3, 19] of the same molecule?
A: 50

Q: What about the “Plant response rating, Bluegrass” value [3, 20] of the same molecule?
A: 5

Q: What about the “Buckwheat, Wild plant response rating” value [4, 14] of the same molecule?
A: 70

Q: And the “Plant response rating, Buckwheat, Wild” value [4, 15]?
A: 100

Q: And the “Plant response rating, Buckwheat, Wild” value [4, 16]?
A: 100

Q: What about the “Plant response rating (scale of 0 to 100), Buckwheat, Wild” value ([4]; Preemergence, 31 g ai/ha) of the same molecule?
A: 5

Q: What about the “Plant response rating, Buckwheat, Wild” value [4, 17] of the same molecule?
A: 10

Q: And the “Plant response rating, Buckwheat, Wild” value [4, 18]?
A: 65

Q: What about the “Plant response rating, Buckwheat, Wild” value [4, 19] of the same molecule?
A: 100

Q: What about the “Plant response rating, Buckwheat, Wild” value [4, 20] of the same molecule?
A: 75

Q: And the “Chamomile plant response rating” value [5, 14]?
A: 65

Q: What about the “Plant response rating, Chamomile” value [5, 15] of the same molecule?
A: 85

Q: And the “Plant response rating, Chamomile” value [5, 16]?
A: 100

Q: And the “Plant response rating (scale of 0 to 100), Chamomile” value ([5]; Preemergence, 31 g ai/ha)?
A: 95

Q: And the “Plant response rating, Chamomile” value [5, 17]?
A: 95

Q: And the “Plant response rating, Chamomile” value [5, 18]?
A: 95

Q: And the “Plant response rating, Chamomile” value [5, 19]?
A: 90

Q: And the “Plant response rating, Chamomile” value [5, 20]?
A: 75

Q: And the “Field Poppy plant response rating” value [6, 14]?
A: 95

Q: And the “Plant response rating, Field Poppy” value [6, 15]?
A: 100

Q: And the “Plant response rating, Field Poppy” value [6, 16]?
A: 95

Q: What about the “Plant response rating (scale of 0 to 100), Field Poppy” value ([6]; Preemergence, 31 g ai/ha) of the same molecule?
A: 95

Q: What about the “Plant response rating, Field Poppy” value [6, 17] of the same molecule?
A: 95

Q: And the “Plant response rating, Field Poppy” value [6, 18]?
A: 95

Q: What about the “Plant response rating, Field Poppy” value [6, 19] of the same molecule?
A: 95

Q: What about the “Plant response rating, Field Poppy” value [6, 20] of the same molecule?
A: 95

Q: And the “Galium plant response rating” value [7, 14]?
A: 80

Q: And the “Plant response rating, Galium” value [7, 15]?
A: 95

Q: And the “Plant response rating, Galium” value [7, 16]?
A: 100

Q: What about the “Plant response rating (scale of 0 to 100), Galium” value ([7]; Preemergence, 31 g ai/ha) of the same molecule?
A: 75

Q: What about the “Plant response rating, Galium” value [7, 17] of the same molecule?
A: 95

Q: What about the “Plant response rating, Galium” value [7, 18] of the same molecule?
A: 100

Q: And the “Plant response rating, Galium” value [7, 19]?
A: 100

Q: What about the “Plant response rating, Galium” value [7, 20] of the same molecule?
A: 90

Q: What about the “Mustard, Wild plant response rating” value [8, 14] of the same molecule?
A: 25

Q: And the “Plant response rating, Mustard, Wild” value [8, 15]?
A: 40

Q: What about the “Plant response rating, Mustard, Wild” value [8, 16] of the same molecule?
A: 65

Q: And the “Plant response rating (scale of 0 to 100), Mustard, Wild” value ([8]; Preemergence, 31 g ai/ha)?
A: 0

Q: And the “Plant response rating, Mustard, Wild” value [8, 17]?
A: 0

Q: And the “Plant response rating, Mustard, Wild” value [8, 18]?
A: 10

Q: What about the “Plant response rating, Mustard, Wild” value [8, 19] of the same molecule?
A: 25

Q: And the “Plant response rating, Mustard, Wild” value [8, 20]?
A: 30

Q: And the “Oat, Wild plant response rating” value [9, 14]?
A: 40

Q: And the “Plant response rating, Oat, Wild” value [9, 15]?
A: 80

Q: What about the “Plant response rating, Oat, Wild” value [9, 16] of the same molecule?
A: 95

Q: What about the “Plant response rating (scale of 0 to 100), Oat, Wild” value ([9]; Preemergence, 31 g ai/ha) of the same molecule?
A: 75

Q: And the “Plant response rating, Oat, Wild” value [9, 17]?
A: 70

Q: And the “Plant response rating, Oat, Wild” value [9, 18]?
A: 95

Q: What about the “Plant response rating, Oat, Wild” value [9, 19] of the same molecule?
A: 100

Q: What about the “Plant response rating, Oat, Wild” value [9, 20] of the same molecule?
A: 70

Q: And the “Oilseed Rape plant response rating” value [10, 14]?
A: 0

Q: And the “Plant response rating, Oilseed Rape” value [10, 15]?
A: 35

Q: What about the “Plant response rating, Oilseed Rape” value [10, 16] of the same molecule?
A: 60

Q: What about the “Plant response rating (scale of 0 to 100), Oilseed Rape” value ([10]; Preemergence, 31 g ai/ha) of the same molecule?
A: 0

Q: And the “Plant response rating, Oilseed Rape” value [10, 17]?
A: 0

Q: What about the “Plant response rating, Oilseed Rape” value [10, 18] of the same molecule?
A: 5

Q: What about the “Plant response rating, Oilseed Rape” value [10, 19] of the same molecule?
A: 20

Q: And the “Plant response rating, Oilseed Rape” value [10, 20]?
A: 15

Q: And the “Pigweed plant response rating” value [11, 14]?
A: 80

Q: What about the “Plant response rating, Pigweed” value [11, 15] of the same molecule?
A: 100

Q: And the “Plant response rating, Pigweed” value [11, 16]?
A: 100

Q: What about the “Plant response rating (scale of 0 to 100), Pigweed” value ([11]; Preemergence, 31 g ai/ha) of the same molecule?
A: 70

Q: And the “Plant response rating, Pigweed” value [11, 17]?
A: 100

Q: And the “Plant response rating, Pigweed” value [11, 18]?
A: 100

Q: And the “Plant response rating, Pigweed” value [11, 19]?
A: 100

Q: What about the “Plant response rating, Pigweed” value [11, 20] of the same molecule?
A: 90

Q: What about the “Radish, Wild plant response rating” value [12, 14] of the same molecule?
A: 10

Q: And the “Plant response rating, Radish, Wild” value [12, 15]?
A: 30

Q: What about the “Plant response rating, Radish, Wild” value [12, 16] of the same molecule?
A: 60

Q: What about the “Plant response rating (scale of 0 to 100), Radish, Wild” value ([12]; Preemergence, 31 g ai/ha) of the same molecule?
A: 0

Q: And the “Plant response rating, Radish, Wild” value [12, 17]?
A: 0

Q: What about the “Plant response rating, Radish, Wild” value [12, 18] of the same molecule?
A: 15

Q: What about the “Plant response rating, Radish, Wild” value [12, 19] of the same molecule?
A: 100

Q: What about the “Plant response rating, Radish, Wild” value [12, 20] of the same molecule?
A: 20

Q: And the “Speedwell plant response rating” value [13, 14]?
A: 25

Q: And the “Plant response rating, Speedwell” value [13, 15]?
A: 60

Q: What about the “Plant response rating, Speedwell” value [13, 16] of the same molecule?
A: 70

Q: And the “Plant response rating (scale of 0 to 100), Speedwell” value ([13]; Preemergence, 31 g ai/ha)?
A: 70

Q: What about the “Plant response rating, Speedwell” value [13, 17] of the same molecule?
A: 50

Q: And the “Plant response rating, Speedwell” value [13, 19]?
A: 95

Q: What about the “Plant response rating, Speedwell” value [13, 20] of the same molecule?
A: 55
